Assays:
[1] = system: Lipoxygenase (leukotriene B4 biosynthesis in human PMN leucocytes); assay: Lipoxygenase inhibition: inhibition of leukotriene B4 biosynthesis in human PMN leucocytes; type: cell-based
Experimental: The human PMN leucocytes (95%) used in the present example were obtained from heparinized complete blood by dextran sedimentation and subsequent density gradient separation (Ficoll-Paque) (compare A. Boyum, Scand. J. Immunol., 5, Suppl. 5, 9, 1976).
2×10^7 cells/ml were suspended in Dulbecco phosphate buffer containing Ca^2+ and were incubated with radioactively labelled arachidonic acid and the calcium ionophor A 23187 in the presence or absence of lipoxygenase inhibitor. After 15 minutes, the labelled lipoxygenase products were extracted from the acidified incubation medium and were separated by thin layer chromatography using a mobile phase mixture suitable for the leukotrienes (5-HETE-LTB4) (compare B. Jakschik et al., Biochem.Biophys.Res.Commun., 102, 624, 1981).
The distribution of the activity amongst the various metabolites was measured by a thin layer scanner. It is a measure of the lipoxygenase-inhibiting action of a test substance at a certain concentration.
The lipoxygenase metabolites were also additionally determined independently by means of high pressure liquid chromatography. This method enables the endogenous arachidonic acid metabolism to be studied with the aid of UV detection of the leukotrienes. In this method, the cells were treated as described above, with the exception that no radioactively labelled arachidonic acid was added exogenously. The high pressure liquid chromatography was carried out on Lichrosorb RP-18 (5 μm) columns. The mobile phase was methanol/water/glacial acetic acid 69/31/0.01. The flow rate was 1 ml/minute. Leukotriene B4 was determined at 232 nm, in each case by means of UV absorption.

[2] = system: 12-lipoxygenase; assay: 12-lipoxygenase inhibition; type: biochemical; conditions: these concentrations (>10 μg/ml)
[3] = system: cyclooxygenase; assay: Cyclooxygenase inhibition; type: biochemical; conditions: on administration of nafazatrom
[4] = system: guinea pig lung; assay: Inhibition of methacholine-induced bronchoconstriction in perfused guinea pig lung; conditions: 10^-4 g/ml; 0.05 μg/ml of methacholine
Experimental: Nafazatrom can moreover be used for the therapy of pulmonary hypertension, pulmonary embolisms and pulmonary oedemas. […] In this organ, nafazatrom inhibits (by the method of F. P. Luduena et al., Arch. Int. Pharmacodyn. 111, 392, 1957) methacholine-induced bronchoconstriction (see Example 5).
The guinea pig lung was perfused with a physiological buffer solution (Tyrode's solution) containing 0.05 μg/ml of methacholine.

[5] = system: cardiac infarction following ligation of the left coronary artery; assay: Coronary artery ligation in rats: cardiac infarction size and total mortality; type: in vivo, rat (Wistar); conditions: for Total mortality % / Infarction size, % of total heart: peroral; for reduction of infarction size: treatment after coronary ligature
From the text: Ligation of the left coronary artery of the rat heart and the disorders in cardiac rhythm which thereby occur form a relatively simple model for investigating substances having antiarrhythmic actions and effects on the developing myocardial ischaemia (Clark et al., J. Pharmacol. Meth. 3, 357, 1980). The effects of nafazatrom on antiarrhythmic and antiischaemic properties in conscious rats was investigated in this model. Particular importance was placed on the severity and quantity of disorders in cardiac rhythm which occurred.
Male Wistar rats (250-350 g) were superficially anaesthetized with ether and investigated for rhythm disorders. Animals with rhythm abnormalities before the start of the experiment were excluded. In acute surgery, the animals were again anaesthetized with ether. In the lateral dorsal position, the thorax was opened somewhat to the left alongside the central line and the heart was exteriorized. Close below the left heart auricle, a silk ligature (3-0) was looped through the muscle of the left heart under the anterior coronary artery. Animals which developed rhythm disorders during this procedure were excluded. The left coronary artery was ligatured by the method described by Selye et al. (Angiology 11, 398, 1960), the heart was returned to the thorax and the wound was rapidly closed with thread. Since the thorax had not been opened for longer than about 45 seconds, artificial respiration of the animals was unnecessary. The operation mortality was between 25 and 40% within the first hours, and in particular myocardial haemorrhages, rhythm disorders with ventricular fibrillation, and massive cardiac infractions occurred. In a sham-operatedgroup, the same experimental conditions were investigated, with the exception that the coronary artery remained open. Shortly after the ligature had been made, early rhythm disorders were observed, which were accompanied in some cases (untreated) with ventricular fibrillations. In most cases, this ventricular fibrillation spontaneously turned into uniform sinus rhythm of heart contraction. The disorders in cardiac rhythm were evaluated by the plan described by Clark (see above). Ventricular tachycardia was defined as the result of more than 10 successive rhythm disorders with extrasystoles. Electrocardiographic changes included a rise in the ST segment, a drop in the Q waves and a rise in the QT interval. The total number of ectopic activity in each individual animal was determined by counting the ventricular extrasystoles, including tachycardia and fibrillations.
Three groups were investigated: group I received the diluent (1% strength aqueous Tylose suspension, that is to say methylhydroxyethyl-cellulose) twice daily perorally (0.5 ml/kg) for 10 days and by the same administration and in the same amount, after coronary ligature, for a further 20 days; group II was pretreated with the diluent for 10 days (0.5 ml/kg) and was treated with 30 or 100 mg/kg of nafazatrom (in each case suspended in 0.5 ml/kg of 1% strength Tylose suspension) twice daily perorally for 20 days, after coronary ligature (the first nafazatrom administration was effected immediately after the coronary ligature); group III received the above oral doses of nafazatrom in the course of 10 days before the ligature, and the diluent Tylose suspension for 10 days after the coronary occlusion had been effected. The sham-operated animals remained untreated. The peripheral ECG in the extremities was determined in lead II, and in particular, as a control before the start of treatment, shortly before and during coronary ligature, 10 minutes after coronary ligature had been effected, and--after renewed ether anaesthesia-- between the 2nd and 4th hour after coronary occlusion. Each time, the animals were superficially anaesthetized again with ether when the ECG was recorded. At the end of the treatment period, a last ECG was recorded shortly before the animals were sacrificed. […]

[6] = system: v.jugularis, a.carotis and a.femoralis; conditions: Seuter et al., 1979; cited from earlier work
[7] = system: 15-hydroxyprostaglandin dehydrogenase; conditions: Wong and McGiff, 1982; cited from earlier work

With `CC1=NN(CCOc2ccc3ccccc3c2)C(=O)C1` [nafazatrom, 3-methyl-1-[2-(2-naphthyloxy)-ethyl]-2-pyrazolin-5-one] the inhibition at 1 µg/mL ([1]; Homo sapiens, Leucocyte, 1 ug/ml, read-out: Inhibition in % in comparison with the control (leukotriene B4 biosynthesis)) was 30%, the inhibition at 3 µg/mL ([1]; Homo sapiens, Leucocyte, 3 ug/ml, read-out: Inhibition in % in comparison with the control (leukotriene B4 biosynthesis)) was 75% and the inhibition at 5 µg/mL ([1]; Homo sapiens, Leucocyte, 5 ug/ml, read-out: Inhibition in % in comparison with the control (leukotriene B4 biosynthesis)) was 90%. For the same compound, the inhibition at 10 µg/mL ([1]; Homo sapiens, Leucocyte, 10 ug/ml, read-out: Inhibition in % in comparison with the control (leukotriene B4 biosynthesis)) was 100%, the “concentration range of inhibition of LTB4 biosynthesis” value ([1]; as a function of the concentration) was 1 to 10 µg/mL and the “inhibition of 12-lipoxygenase” value [2] was “not inhibited”. For the same compound, the inhibition of cyclooxygenase [3] was “No such inhibition of cyclooxygenase”, the “inhibition of the rise in perfusion pressure, and hence bronchoconstriction” value [4] was 50% and the “total mortality” value ([5]; after-treated with 30 mg/kg) was 22%. For the same compound, the “total mortality” value ([5]; after-treated with 100 mg/kg) was 12%, the “infarctions in comparison with the control animals treated only with Tylose” value ([5]; both groups (before or after coronary ligature)) was “significantly smaller” and the Total mortality % ([5]; group II, after-treatment 30 mg/kg, 2 × daily, 20 days) was 24%. The “Infarction size, % of total heart” value ([5]; group II, after-treatment 30 mg/kg, 2 × daily, 20 days, 15 animals) was 31.5%, the Total mortality % ([5]; group II, after-treatment 100 mg/kg, 2 × daily, 20 days) was 22% and the “Infarction size, % of total heart” value ([5]; group II, after-treatment 100 mg/kg, 2 × daily, 20 days, 18 animals) was 26.7%. The Total mortality % ([5]; group III, pre-treatment 30 mg/kg, 10 days) was 22%, the “Infarction size, % of total heart” value ([5]; group III, pre-treatment 30 mg/kg, 10 days, 12 animals) was 28.0% and the Total mortality % ([5]; group III, pre-treatment 100 mg/kg, 10 days) was 12%. For the same compound, the “Infarction size, % of total heart” value ([5]; group III, pre-treatment 100 mg/kg, 10 days, 16 animals) was 22.7%, the reduction of infarction ([5]; pre-treatment 30 mg/kg) was 36% and the reduction of infarction ([5]; pre-treatment 100 mg/kg) was 48%. The “reduction of infarction size” value ([5]; 30 mg/kg) was 28%, the “reduction of infarction size” value ([5]; 100 mg/kg) was 39% and the antithrombotic effectiveness [6] was “effective arterially and venously”. The “blocking of 15-hydroxyprostaglandin dehydrogenase” value [7] was “blocks 15-hydroxyprostaglandin dehydrogenase”.

Reference: patent US4657924A, “Nafazatrom as a lipoxygenase inhibitor” (priority 1983, dated 1987)
